# According to patent US20090325964A1, “Piperazine Metabotropic Glutamate Receptor 5 (MGLUR5) Negative Allosteric Modulators For Anxiety/Depression” (Wyeth, priority 2008, published 2009):
# Like-named read-outs stand apart in the source and are kept apart here.
# Target: T1, rat mGluR5 receptor (Rattus norvegicus, UniProt P31424)
# T1 construct: expressed in transfected cells; host or cells: HEK-293
# Assay: [3H]-MPEP displacement binding assay, HEK-293 cell membranes expressing rat mGluR5
# Details: for Ki: read-out: Median Ki
# Procedure, shortened: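 Membranes from HEK-293 cells expressing rat mGluR5 (12-25 μg protein), incubated 60 min at room temperature with 4 nM [3H]-MPEP in 50 mM Tris pH 7.5, then filtered. Nonspecific binding defined with 10 μM MPEP.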
# [1] = single point, @ 10 μM compound, Table 3A, read-out: PCT INHIB (%) @ 10 μM
# [2] = @ 10 μM compound, Biological Activity, Table 2A, read-out: PCT INHIB (%) @ 10 μM
# [3] = [3H]-MPEP displacement, rat mGluR5
# [4] = 1 h, single point, @ 10 μm compound, Table 1A, read-out: PCT INHIB (%) @ 10 μm
# T1 sequence (P31424 21-1203): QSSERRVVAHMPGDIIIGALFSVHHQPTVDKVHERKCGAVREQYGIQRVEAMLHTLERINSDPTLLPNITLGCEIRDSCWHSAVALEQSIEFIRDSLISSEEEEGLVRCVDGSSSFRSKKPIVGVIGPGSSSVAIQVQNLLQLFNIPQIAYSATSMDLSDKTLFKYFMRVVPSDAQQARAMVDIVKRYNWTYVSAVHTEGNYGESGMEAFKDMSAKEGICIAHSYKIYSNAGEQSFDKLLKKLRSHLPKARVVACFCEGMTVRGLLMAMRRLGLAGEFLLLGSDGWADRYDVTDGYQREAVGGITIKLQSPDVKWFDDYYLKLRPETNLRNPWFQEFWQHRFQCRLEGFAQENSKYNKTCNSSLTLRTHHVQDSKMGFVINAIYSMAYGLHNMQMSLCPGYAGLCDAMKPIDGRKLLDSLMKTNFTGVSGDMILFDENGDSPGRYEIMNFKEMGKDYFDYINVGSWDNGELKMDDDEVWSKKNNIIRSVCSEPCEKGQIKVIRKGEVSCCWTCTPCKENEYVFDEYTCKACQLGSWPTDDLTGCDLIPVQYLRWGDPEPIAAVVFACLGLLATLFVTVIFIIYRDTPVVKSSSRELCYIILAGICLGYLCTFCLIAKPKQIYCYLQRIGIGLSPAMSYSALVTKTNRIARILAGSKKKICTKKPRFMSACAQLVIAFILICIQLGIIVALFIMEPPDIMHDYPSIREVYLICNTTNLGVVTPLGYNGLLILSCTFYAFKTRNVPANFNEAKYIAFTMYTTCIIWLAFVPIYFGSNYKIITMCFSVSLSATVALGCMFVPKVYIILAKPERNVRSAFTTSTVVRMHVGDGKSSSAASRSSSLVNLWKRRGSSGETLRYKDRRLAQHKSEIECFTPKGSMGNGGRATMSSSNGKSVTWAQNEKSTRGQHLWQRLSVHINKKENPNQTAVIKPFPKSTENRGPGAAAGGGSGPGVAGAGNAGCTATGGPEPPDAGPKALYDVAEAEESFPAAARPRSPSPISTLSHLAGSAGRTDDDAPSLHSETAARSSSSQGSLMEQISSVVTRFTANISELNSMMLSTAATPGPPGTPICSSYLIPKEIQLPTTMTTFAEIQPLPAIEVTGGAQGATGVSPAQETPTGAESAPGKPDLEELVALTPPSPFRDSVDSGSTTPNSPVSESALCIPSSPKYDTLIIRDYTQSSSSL
structure (smiles),measurement,setting,value
"COc1cccc(COc2cccc(C(=O)N3CCN(c4ccccn4)CC3)c2)c1 [Compound 155, 1-{3-[(3-methoxybenzyl)oxy]benzoyl}-4-pyridin-2-ylpiperazine]",inhibition at 10 µM,[1],0%
"O=C(c1cccc(C#Cc2ccccc2)c1)N1CCN(c2ncccc2C(F)(F)F)CC1 [Compound 129, 1-[3-(phenylethynyl)benzoyl]-4-[3-(trifluoromethyl)pyridin-2-yl]piperazine]",inhibition at 10 µM,[2],45%
"COc1cccc(C#Cc2cccc(S(=O)(=O)N3CCN(c4ccccn4)CC3)c2)c1 [Compound 175, 1-({3-[(3-methoxyphenyl)ethynyl]phenyl}sulfonyl)-4-pyridin-2-ylpiperazine]",inhibition at 10 µM,"single point, @ 10 μM compound, Table 5, read-out: PCT INHIB (%) @ 10 μM",0%
"CC(=O)c1ccc(N2CCN(C(=O)c3cccc(C#Cc4ccccc4)c3)CC2)cc1 [Compound 74, 1-(4-{-[3-(phenylethynyl)benzoyl]piperazine-1-yl}phenyl)ethanone]",PCT INHIB (%) @ 10 μM,"@ 10 μM compound, Biological Activity, Table 2A",20%
"O=C(c1cccc(C#Cc2ccccc2)c1)N1CCN(c2ccc(C(F)(F)F)cc2)CC1 [Compound 77, 1-[3-(phenylethynyl)benzoyl]-4-[4-(trifluoromethyl)phenyl]piperazine]",inhibition at 10 µM,[2],0%
"COc1ccc(C(=O)N2CCN(c3ncccn3)CC2)cc1C#Cc1cccc(OC(F)(F)F)c1 [Compound 356, 2-[4-(4-methoxy-3-{[3-(trifluoromethoxy)phenyl]ethynyl}benzoyl)piperazin-1-yl]pyrimidine]",Ki,[3],0.29 µM
"Cn1cncc1C#Cc1cccc(C(=O)N2CCN(c3ccccn3)CC2)c1 [Compound 7, 1-{3-[(1-methyl-1H-imidazol-5-yl)ethynyl]benzoyl}-4-pyridin-2-ylpiperazine]",inhibition at 10 µM,[4],0%
"COc1ccc(C(=O)N2CCN(c3ncccn3)CC2)cc1C#Cc1ccc(Cl)cc1 [Compound 363, 2-(4-{3-[(4-chlorophenyl)ethynyl]-4-methoxybenzoyl}piperazin-1-yl)pyrimidine]",Ki,[3],0.891 µM
"Cc1cccc(N2CCN(C(=O)c3cccc(C#Cc4ccccc4)c3)CC2)n1 [Compound 110, 1-(6-methylpyridin-2-yl)-4-[3-(phenylethynyl)benzoyl]piperazine]",inhibition at 10 µM,[2],68%
same,Ki,"Biological Activity, Table 2A",3.41 µM
"COc1cccc(C#Cc2cc(C(=O)N3CCN(c4cnccn4)CC3)ccc2OC)c1 [Compound 52, 2-(4-{4-methoxy-3-[(3-methoxyphenyl)ethynyl]benzoyl}piperazin-1-yl)pyrazine]",inhibition at 10 µM,[4],81%
same,Ki,,0.0601 µM
"Cc1cc(C)nc(N2CCN(C(=O)c3cccc(C#Cc4ccccc4)c3)CC2)n1 [Compound 111, 4,6-dimethyl-2-{4-[3-(phenylethynyl)benzoyl]piperazin-1-yl}pyrimidine]",inhibition at 10 µM,[2],0%
"O=C(c1ccc(C(F)(F)F)c(C#Cc2ccccn2)c1)N1CCN(c2ncccc2Cl)CC1 [Compound 371, 1-(3-chloropyridin-2-yl)-4-{[3-(pyridin-2-ylethynyl)-4-(trifluoromethyl)phenyl]carbonyl}piperazine]",Ki,"[3H]-MPEP displacement, rat mGluR5 membranes",1 µM
"O=C(c1cccc(COc2ccccn2)c1)N1CCN(c2ccccn2)CC1 [Compound 170, 1-pyridin-2-yl-4-{3-[(pyridin-2-yloxy)methyl]benzoyl}piperazine]",Ki,"[3H]-MPEP 4 nM, Table 4A",> 10 µM
"COc1ccc(C(=O)N2CCN(c3nc(C)cc(C)n3)CC2)cc1C#Cc1ccccc1 [Compound 119, 2-{4-[4-methoxy-3-(phenylethynyl)benzoyl]piperazin-1-yl}-4,6-dimethylpyrimidine]",inhibition at 10 µM,[2],35%
"O=C(c1cccc(C#Cc2ccccc2)c1)N1CCN(c2ccc([N+](=O)[O-])cc2)CC1 [Compound 75, 1-(4-nitrophenyl)-4-[3-(phenylethynyl)benzoyl]piperazine]",inhibition at 10 µM,[2],20%
"COc1ccc(C(=O)N2CCN(c3nnc([N+](=O)[O-])s3)CC2)cc1C#Cc1ccccn1 [Compound 276, 1-[4-methoxy-3-(pyridin-2-ylethynyl)benzoyl]-4-(5-nitro-1,3,4-thiadiazol-2-yl)piperazine]",Ki,[3],0.139 µM
"O=C(c1cccc(OCc2ccccc2)c1)N1CCN(c2ccccn2)CC1 [Compound 152, 1-[3-(benzyloxy)benzoyl]-4-pyridin-2-ylpiperazine]",inhibition at 10 µM,[1],0%
